Experimental data as given in the kinase profiling compilation of Christmann-Franck et al. (2016).

What was measured:
Test in all cases: radiometric filter-binding kinase assay
PLK1 (human) = PLK1 (human) (UniProt P53350); conditions: compound 100.0 µM; ATP 5 µM
TTK (human) = TTK (human) (UniProt P33981); conditions: compound 100.0 µM; ATP 20 µM
PHKG1 (human) = PHKG1 (human) (UniProt Q16816); conditions: compound 100.0 µM; ATP 50 µM
MAP2K2 (human) = MAP2K2 (human) (UniProt P36507); conditions: compound 100.0 µM; ATP 5 µM
MAPK3 (human) = MAPK3 (human) (UniProt P27361); conditions: compound 100.0 µM; ATP 5 µM
CHEK1 (human) = CHEK1 (human) (UniProt O14757); conditions: compound 100.0 µM; ATP 20 µM
JAK2 JH1 JH2 (human) = JAK2 JH1 JH2 (human) (UniProt O60674); conditions: compound 100.0 µM; ATP 5 µM
IRAK4 (human) = IRAK4 (human) (UniProt Q9NWZ3); conditions: compound 100.0 µM; ATP 20 µM
MAPKAPK3 (human) = MAPKAPK3 (human) (UniProt Q16644); conditions: compound 100.0 µM; ATP 20 µM
[1] = system: AKT2 (human), P31751 [S474D]; conditions: compound 100.0 µM; ATP 50 µM
PIM1 (human) = PIM1 (human) (UniProt P11309); conditions: compound 100.0 µM; ATP 20 µM
MAPK13 (human) = MAPK13 (human) (UniProt O15264); conditions: compound 100.0 µM; ATP 5 µM
MAPK15 (human) = MAPK15 (human) (UniProt Q8TD08); conditions: compound 100.0 µM; ATP 5 µM
BRSK1 (human) = BRSK1 (human) (UniProt Q8TDC3); conditions: compound 100.0 µM; ATP 20 µM
CHEK2 (human) = CHEK2 (human) (UniProt O96017); conditions: compound 100.0 µM; ATP 20 µM
MARK4 (human) = MARK4 (human) (UniProt Q96L34); conditions: compound 100.0 µM; ATP 50 µM
DYRK2 (human) = DYRK2 (human) (UniProt Q92630); conditions: compound 100.0 µM; ATP 50 µM
AURKB (human) = AURKB (human) (UniProt Q96GD4); conditions: compound 100.0 µM; ATP 20 µM
PAK7 (human) = PAK7 (human) (UniProt Q9P286); conditions: compound 100.0 µM; ATP 20 µM
GCK (human) = GCK (human) (UniProt Q12851); conditions: compound 100.0 µM; ATP 20 µM
FLT1 (human) = FLT1 (human) (UniProt P17948); conditions: compound 100.0 µM; ATP 20 µM
[2] = system: SGK1 (human), O00141 [S422D]; conditions: compound 100.0 µM; ATP 20 µM
PIM3 (human) = PIM3 (human) (UniProt Q86V86); conditions: compound 100.0 µM; ATP 20 µM
PDPK1 (human) = PDPK1 (human) (UniProt O15530); conditions: compound 100.0 µM
TBK1 (human) = TBK1 (human) (UniProt Q9UHD2); conditions: compound 100.0 µM; ATP 50 µM
STK16 (human) = STK16 (human) (UniProt O75716); conditions: compound 100.0 µM; ATP 50 µM
AURKA (human) = AURKA (human) (UniProt O14965); conditions: compound 100.0 µM; ATP 5 µM
MAP2K1 (human) = MAP2K1 (human) (UniProt Q02750); conditions: compound 100.0 µM; ATP 5 µM
MAP3K9 (human) = MAP3K9 (human) (UniProt P80192); conditions: compound 100.0 µM; ATP 20 µM
SRPK1 (human) = SRPK1 (human) (UniProt Q96SB4); conditions: compound 100.0 µM; ATP 50 µM
PAK6 (human) = PAK6 (human) (UniProt Q9NQU5); conditions: compound 100.0 µM; ATP 20 µM
RIPK2 (human) = RIPK2 (human) (UniProt O43353); conditions: compound 100.0 µM; ATP 20 µM
MAPK14 (human) = MAPK14 (human) (UniProt Q16539); conditions: compound 100.0 µM; ATP 50 µM
MARK1 (human) = MARK1 (human) (UniProt Q9P0L2); conditions: compound 100.0 µM; ATP 20 µM
[3] = system: RPS6KB1 (human), P23443 [T412E]; conditions: compound 100.0 µM; ATP 20 µM
MAPK9 (human) = MAPK9 (human) (UniProt P45984); conditions: compound 100.0 µM; ATP 20 µM
PTK6 (human) = PTK6 (human) (UniProt Q13882); conditions: compound 100.0 µM; ATP 20 µM
ABL1 (human) = ABL1 (human) (UniProt P00519); conditions: compound 100.0 µM; ATP 5 µM
CSNK2A1 (human) = CSNK2A1 (human) (UniProt P68400); conditions: compound 100.0 µM; ATP 5 µM
FGFR1 (human) = FGFR1 (human) (UniProt P11362); conditions: compound 100.0 µM; ATP 20 µM

Sequence of PDPK1 (human) (O15530 whole entry, looked up): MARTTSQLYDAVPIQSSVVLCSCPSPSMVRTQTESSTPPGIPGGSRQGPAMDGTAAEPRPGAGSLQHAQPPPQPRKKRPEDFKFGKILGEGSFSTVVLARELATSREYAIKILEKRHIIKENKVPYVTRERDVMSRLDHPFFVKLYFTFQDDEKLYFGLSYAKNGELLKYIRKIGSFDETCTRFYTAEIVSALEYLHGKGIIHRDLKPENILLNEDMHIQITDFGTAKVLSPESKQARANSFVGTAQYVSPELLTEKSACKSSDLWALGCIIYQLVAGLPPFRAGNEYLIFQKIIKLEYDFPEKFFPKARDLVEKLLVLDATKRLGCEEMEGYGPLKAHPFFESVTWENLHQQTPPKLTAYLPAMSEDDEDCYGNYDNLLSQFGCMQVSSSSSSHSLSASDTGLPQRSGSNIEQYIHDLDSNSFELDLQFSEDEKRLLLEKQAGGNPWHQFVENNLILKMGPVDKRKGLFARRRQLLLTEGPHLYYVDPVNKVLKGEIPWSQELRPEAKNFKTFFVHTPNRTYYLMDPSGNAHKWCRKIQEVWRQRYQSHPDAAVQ
Sequence of MAP3K9 (human) (P80192 whole entry, looked up): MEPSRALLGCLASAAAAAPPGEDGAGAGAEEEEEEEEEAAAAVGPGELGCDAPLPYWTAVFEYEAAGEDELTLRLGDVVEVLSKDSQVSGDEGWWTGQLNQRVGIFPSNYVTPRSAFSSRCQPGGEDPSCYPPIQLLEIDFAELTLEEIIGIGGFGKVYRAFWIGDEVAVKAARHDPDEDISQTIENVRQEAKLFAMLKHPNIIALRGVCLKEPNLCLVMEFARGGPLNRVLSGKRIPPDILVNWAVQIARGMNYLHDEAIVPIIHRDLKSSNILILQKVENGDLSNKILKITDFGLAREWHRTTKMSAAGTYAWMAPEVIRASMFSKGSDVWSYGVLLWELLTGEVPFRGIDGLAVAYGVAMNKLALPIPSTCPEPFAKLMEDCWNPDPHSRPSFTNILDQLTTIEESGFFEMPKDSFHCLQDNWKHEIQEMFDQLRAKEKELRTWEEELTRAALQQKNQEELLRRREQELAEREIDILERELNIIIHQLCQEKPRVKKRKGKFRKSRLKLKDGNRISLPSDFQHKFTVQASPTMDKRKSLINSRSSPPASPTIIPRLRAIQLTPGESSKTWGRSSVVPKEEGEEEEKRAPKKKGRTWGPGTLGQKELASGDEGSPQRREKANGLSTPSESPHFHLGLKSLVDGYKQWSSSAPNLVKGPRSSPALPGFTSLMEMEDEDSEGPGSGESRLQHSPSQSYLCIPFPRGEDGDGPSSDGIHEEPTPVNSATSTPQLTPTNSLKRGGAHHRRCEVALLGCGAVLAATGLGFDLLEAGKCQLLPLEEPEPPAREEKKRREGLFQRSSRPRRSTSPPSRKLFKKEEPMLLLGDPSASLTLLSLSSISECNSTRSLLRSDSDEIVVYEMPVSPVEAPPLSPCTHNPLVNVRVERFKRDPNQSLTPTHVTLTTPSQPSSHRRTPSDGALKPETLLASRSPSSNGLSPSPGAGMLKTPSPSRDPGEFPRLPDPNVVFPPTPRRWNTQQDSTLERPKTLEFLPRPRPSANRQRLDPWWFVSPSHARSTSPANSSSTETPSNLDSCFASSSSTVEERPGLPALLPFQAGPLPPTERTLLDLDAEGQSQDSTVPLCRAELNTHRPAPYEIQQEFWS
Sequence of AURKA (human) (O14965 whole entry, looked up): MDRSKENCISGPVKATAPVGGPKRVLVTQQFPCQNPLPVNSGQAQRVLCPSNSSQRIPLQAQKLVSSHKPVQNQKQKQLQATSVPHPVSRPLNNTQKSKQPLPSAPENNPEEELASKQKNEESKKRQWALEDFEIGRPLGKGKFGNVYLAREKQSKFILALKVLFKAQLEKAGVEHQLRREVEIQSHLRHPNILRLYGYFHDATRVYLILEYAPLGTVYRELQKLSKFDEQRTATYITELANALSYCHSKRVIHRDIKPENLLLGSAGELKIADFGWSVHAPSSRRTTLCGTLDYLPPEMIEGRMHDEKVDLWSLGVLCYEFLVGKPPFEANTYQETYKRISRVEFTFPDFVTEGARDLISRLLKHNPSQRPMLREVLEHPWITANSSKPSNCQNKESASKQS
Sequence of MAPKAPK3 (human) (Q16644 whole entry, looked up): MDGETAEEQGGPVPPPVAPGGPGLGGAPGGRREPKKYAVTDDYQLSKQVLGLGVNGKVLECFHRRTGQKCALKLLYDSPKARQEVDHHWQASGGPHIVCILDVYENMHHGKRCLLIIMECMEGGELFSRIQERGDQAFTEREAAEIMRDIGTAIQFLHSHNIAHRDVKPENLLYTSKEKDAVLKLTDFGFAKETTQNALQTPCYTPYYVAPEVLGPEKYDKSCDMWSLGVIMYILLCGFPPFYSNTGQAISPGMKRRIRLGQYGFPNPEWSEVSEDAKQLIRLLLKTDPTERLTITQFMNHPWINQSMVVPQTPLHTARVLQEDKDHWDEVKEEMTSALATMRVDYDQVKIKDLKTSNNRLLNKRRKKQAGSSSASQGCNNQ
Sequence of IRAK4 (human) (Q9NWZ3 whole entry, looked up): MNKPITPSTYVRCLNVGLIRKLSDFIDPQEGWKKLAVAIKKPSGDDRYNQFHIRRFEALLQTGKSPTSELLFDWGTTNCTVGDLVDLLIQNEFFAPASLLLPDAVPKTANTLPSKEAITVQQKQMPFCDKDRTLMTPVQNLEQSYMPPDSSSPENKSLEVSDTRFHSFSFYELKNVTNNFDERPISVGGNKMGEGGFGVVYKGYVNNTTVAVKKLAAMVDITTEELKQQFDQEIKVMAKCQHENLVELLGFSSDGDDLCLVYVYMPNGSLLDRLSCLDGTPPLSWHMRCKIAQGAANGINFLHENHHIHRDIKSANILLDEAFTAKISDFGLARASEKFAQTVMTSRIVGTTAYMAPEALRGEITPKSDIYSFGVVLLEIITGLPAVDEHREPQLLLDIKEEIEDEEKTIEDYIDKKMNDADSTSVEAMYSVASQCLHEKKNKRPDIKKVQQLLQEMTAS
Sequence of TTK (human) (P33981 whole entry, looked up): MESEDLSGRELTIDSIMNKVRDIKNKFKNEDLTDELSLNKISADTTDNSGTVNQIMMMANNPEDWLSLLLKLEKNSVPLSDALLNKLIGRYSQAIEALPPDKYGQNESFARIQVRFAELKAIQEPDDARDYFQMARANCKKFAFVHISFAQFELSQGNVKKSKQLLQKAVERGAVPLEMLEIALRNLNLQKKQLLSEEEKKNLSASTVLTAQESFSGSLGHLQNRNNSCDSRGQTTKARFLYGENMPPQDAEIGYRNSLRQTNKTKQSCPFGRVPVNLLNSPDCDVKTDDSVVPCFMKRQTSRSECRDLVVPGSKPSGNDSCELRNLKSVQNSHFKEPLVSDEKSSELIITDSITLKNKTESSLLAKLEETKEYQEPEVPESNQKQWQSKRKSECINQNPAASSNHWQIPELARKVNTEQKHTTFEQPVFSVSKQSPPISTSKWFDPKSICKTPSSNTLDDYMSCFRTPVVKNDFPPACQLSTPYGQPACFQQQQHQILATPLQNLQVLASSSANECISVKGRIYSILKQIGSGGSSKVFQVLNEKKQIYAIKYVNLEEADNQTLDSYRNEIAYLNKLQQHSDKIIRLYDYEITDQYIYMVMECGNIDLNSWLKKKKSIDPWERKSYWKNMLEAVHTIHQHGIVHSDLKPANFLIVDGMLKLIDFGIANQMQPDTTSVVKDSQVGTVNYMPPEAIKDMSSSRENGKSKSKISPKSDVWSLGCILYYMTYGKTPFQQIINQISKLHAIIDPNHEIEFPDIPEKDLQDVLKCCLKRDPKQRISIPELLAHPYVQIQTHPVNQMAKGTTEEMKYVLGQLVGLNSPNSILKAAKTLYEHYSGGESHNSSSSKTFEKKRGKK
Sequence of TBK1 (human) (Q9UHD2 whole entry, looked up): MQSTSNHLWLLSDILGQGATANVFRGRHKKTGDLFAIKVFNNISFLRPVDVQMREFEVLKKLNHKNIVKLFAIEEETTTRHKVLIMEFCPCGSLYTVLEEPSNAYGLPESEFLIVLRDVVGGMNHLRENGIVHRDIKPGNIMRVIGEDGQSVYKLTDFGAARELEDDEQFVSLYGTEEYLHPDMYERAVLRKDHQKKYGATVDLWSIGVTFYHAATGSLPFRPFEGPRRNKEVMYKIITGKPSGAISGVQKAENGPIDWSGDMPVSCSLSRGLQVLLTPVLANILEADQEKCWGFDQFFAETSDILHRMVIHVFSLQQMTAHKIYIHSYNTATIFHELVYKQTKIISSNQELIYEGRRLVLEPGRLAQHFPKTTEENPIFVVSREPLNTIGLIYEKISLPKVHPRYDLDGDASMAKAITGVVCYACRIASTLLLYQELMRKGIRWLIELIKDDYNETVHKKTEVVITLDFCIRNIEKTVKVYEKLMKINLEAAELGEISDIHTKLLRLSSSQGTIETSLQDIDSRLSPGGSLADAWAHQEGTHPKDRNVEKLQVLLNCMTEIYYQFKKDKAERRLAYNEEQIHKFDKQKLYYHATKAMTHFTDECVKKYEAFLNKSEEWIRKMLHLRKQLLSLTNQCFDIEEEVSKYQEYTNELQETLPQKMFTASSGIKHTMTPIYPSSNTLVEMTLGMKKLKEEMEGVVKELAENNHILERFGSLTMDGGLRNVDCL
Sequence of MAP2K1 (human) (Q02750 whole entry, looked up): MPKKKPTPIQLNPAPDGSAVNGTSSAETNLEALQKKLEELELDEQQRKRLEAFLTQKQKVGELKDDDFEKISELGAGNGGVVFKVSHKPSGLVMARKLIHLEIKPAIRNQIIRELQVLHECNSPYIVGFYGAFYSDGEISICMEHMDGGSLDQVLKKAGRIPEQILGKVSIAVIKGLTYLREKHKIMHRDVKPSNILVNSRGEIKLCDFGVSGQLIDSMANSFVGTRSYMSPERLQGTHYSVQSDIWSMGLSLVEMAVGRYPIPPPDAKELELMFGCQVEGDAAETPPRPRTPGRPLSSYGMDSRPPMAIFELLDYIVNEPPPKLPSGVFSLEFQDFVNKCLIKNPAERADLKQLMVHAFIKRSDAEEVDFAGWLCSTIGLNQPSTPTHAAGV

O=c1c(NC(=S)NCc2ccccc2)cnc2[nH]ccn12
inhibition (PLK1 (human)): 0% | inhibition (TTK (human)): 0% | inhibition (PHKG1 (human)): 24% | inhibition (MAP2K2 (human)): 0% | inhibition (MAPK3 (human)): 7% | inhibition (CHEK1 (human)): 0% | inhibition (JAK2 JH1 JH2 (human)): 0% | inhibition (IRAK4 (human)): 6% | inhibition (MAPKAPK3 (human)): 21% | inhibition [1]: 31% | inhibition (PIM1 (human)): 0% | inhibition (MAPK13 (human)): 0% | inhibition (MAPK15 (human)): 3% | inhibition (BRSK1 (human)): 2% | inhibition (CHEK2 (human)): 20% | inhibition (MARK4 (human)): 21% | inhibition (DYRK2 (human)): 13% | inhibition (AURKB (human)): 0% | inhibition (PAK7 (human)): 0% | inhibition (GCK (human)): 0% | inhibition (FLT1 (human)): 28% | inhibition [2]: 0% | inhibition (PIM3 (human)): 0% | inhibition (PDPK1 (human); ATP 20 µM): 0% | inhibition (PDPK1 (human); ATP 50 µM): 0% | inhibition (TBK1 (human)): 0% | inhibition (STK16 (human)): 0% | inhibition (AURKA (human)): 8% | inhibition (MAP2K1 (human)): 57% | inhibition (MAP3K9 (human)): 0% | inhibition (SRPK1 (human)): 9% | inhibition (PAK6 (human)): 0% | inhibition (RIPK2 (human)): 0% | inhibition (MAPK14 (human)): 0% | inhibition (MARK1 (human)): 13% | inhibition [3]: 9% | inhibition (MAPK9 (human)): 7% | inhibition (PTK6 (human)): 31% | inhibition (ABL1 (human)): 0% | inhibition (CSNK2A1 (human)): 3% | inhibition (FGFR1 (human)): 6%
